Assay results as given in US5824771A, “Cyclic CRF agonists” (The Salk Institute for Biological Studies, priority 1997, dated 1998).
Bridge positions count the residues as written; N and C are the ends. Square brackets hold non-standard residues; d marks the D form. Ends that are not written are not given here. Peptide text beside a SMILES is read from it. Nle = CCCC[C@H](N)C(=O)O

Assays:
[1] = system: rat anterior pituitary cells; test: In vitro stimulation of ACTH and β-endorphin secretion by cultured rat pituitary cells, potency compared with oCRF (Standard) or r/hCRF; type: cell-based; conditions: for stimulation of secretion of ACTH and β-END-LI (testing by the general procedure), in words: general procedure of Example 1; for in vitro potency to stimulate secretion of ACTH relative to the Standard: relative to the laboratory Standard (synthetic oCRF), cultured rat pituitary cells, limits in parentheses; for in vitro biopotency, comparison in words: compared with the Standard or with a named analog
Method: (§1) The cyclic CRF agonists are examined for their effects on the secretion of ACTH and β-endorphin in vitro and also in vivo. […] In vivo testing is carried out using the general procedure set forth in C. Rivier et al., Science, 218, 377 (1982).

[2] = Lowering of blood pressure on peripheral or iv administration; type: in vivo; conditions: for lowering of blood pressure when administered peripherally, in words: peripheral administration; for lowering of blood pressure on iv injection, in words: iv injection / administered intravenously
[3] = system: ACTH and β-END-LI secretion; test: Secretion of ACTH and β-END-LI on administration of the peptide (in vivo testing)
Method: as §1

Compound	stimulation of secretion of ACTH and β-END-LI (testing by the general procedure), in words [1]	lowering of blood pressure when administered peripherally, in words [2]	stimulation of secretion of ACTH and β-END-LI on administration of the peptide, in words [3]	further results
CCCC[C@H](NC(=O)[C@H](CCC(=O)O)NC(=O)[C@@H](NC(=O)[C@H](CCCC)NC(=O)[C@H](CC(N)=O)NC(=O)[C@H](CCCNC(=N)N)NC(=O)[C@H](CC(C)C)NC(=O)[C@H](CC(C)C)NC(=O)[C@H](Cc1c[nH]cn1)NC(=O)[C@@H](Cc1ccccc1)NC(=O)[C@@H](NC(=O)[C@H](CC(C)C)NC(=O)[C@H](CC(=O)O)NC(=O)[C@@H](NC(=O)[C@H](CO)NC(C)=O)[C@@H](C)CC)[C@@H](C)O)[C@@H](C)CC)C(=O)N[C@@H](C)C(=O)N[C@@H](CCCNC(=N)N)C(=O)N[C@@H](CC(N)=O)C(=O)N[C@@H](CCC(=O)O)C(=O)N[C@@H](CC(N)=O)C(=O)N[C@@H](CCC(N)=O)C(=O)N[C@@H](CCCNC(=N)N)C(=O)N[C@@H](CCC(=O)O)C(=O)N[C@H]1CCC(=O)NCCCC[C@@H](C(=O)N[C@@H](CC(N)=O)C(=O)N[C@@H](CCCNC(=N)N)C(=O)N[C@@H](CCCCN)C(=O)N[C@@H](Cc2ccc(O)cc2)C(=O)N[C@@H](CC(C)C)C(=O)N[C@@H](CC(=O)O)C(=O)N[C@@H](CCC(=O)O)C(=O)N[C@H](C(N)=O)C(C)C)NC(=O)[C@@H](C)NC(=O)[C@H](C)NC1=O [Example 16 F, (cyclo 30-33)[Ac-Ser^7, D-Phe^12, Nle^18,21, Glu^30, D-Ala^32, Lys^33]-carp urotensin(7-41)] (Ac-SIDLT[dF]HLLRN[Nle]IE[Nle]ARNENQREEA[dA]KNRKYLDEV-NH2; lactam 24-27)	stimulate the secretion of ACTH and β-END-LI	very significant lowering of blood pressure	–	–
CCCC[C@H](NC(=O)[C@H](CCCCN)NC(=O)[C@H](C)NC(=O)[C@H](CCCNC(=N)N)NC(=O)[C@H](Cc1c[nH]cn1)NC(=O)[C@@H](NC(=O)[C@H](CCCC)NC(=O)[C@H](CC(N)=O)NC(=O)[C@H](CCCNC(=N)N)NC(=O)[C@H](CC(C)C)NC(=O)[C@H](CCCC)NC(=O)[C@H](Cc1c[nH]cn1)NC(=O)[C@@H](Cc1ccccc1)NC(=O)[C@@H](NC(=O)[C@H](CC(C)C)NC(=O)[C@H](CC(=O)O)NC(=O)[C@@H](NC(=O)[C@H](CO)NC(C)=O)[C@@H](C)CC)[C@@H](C)O)[C@@H](C)CC)C(=O)N[C@@H](CCC(=O)O)C(=O)NCC(=O)N[C@@H](CCC(=O)O)C(=O)N[C@@H](CCCNC(=N)N)C(=O)N[C@@H](CCC(=O)O)C(=O)N[C@H]1CCC(=O)NCCCC[C@@H](C(=O)N[C@@H](CC(N)=O)C(=O)N[C@@H](CCCNC(=N)N)C(=O)N[C@@H](CC(N)=O)C(=O)N[C@@H](CC(C)C)C(=O)N[C@@H](CCCC)C(=O)N[C@@H](CC(=O)O)C(=O)N[C@@H](CCC(=O)O)C(=O)N[C@H](C(N)=O)C(C)C)NC(=O)[C@@H](CC(C)C)NC(=O)[C@H](C)NC1=O [Example 16 G, (cyclo 30-33)[Ac-Ser^7, D-Phe^12, Nle^14,18,24,38, Glu^30, D-Leu^32, Lys^33]-sole urotensin(7-41)] (Ac-SIDLT[dF]H[Nle]LRN[Nle]IHRAK[Nle]EGEREEA[dL]KNRNL[Nle]DEV-NH2; lactam 24-27)	stimulate the secretion of ACTH and β-END-LI	very significant lowering of blood pressure	–	–
CCCC[C@H](NC(=O)[C@H](CCCCN)NC(=O)[C@H](C)NC(=O)[C@H](CCCNC(=N)N)NC(=O)[C@H](Cc1c[nH]cn1)NC(=O)[C@@H](NC(=O)[C@H](CCCC)NC(=O)[C@H](CC(N)=O)NC(=O)[C@H](CCCNC(=N)N)NC(=O)[C@H](CC(C)C)NC(=O)[C@H](CCCC)NC(=O)[C@H](Cc1c[nH]cn1)NC(=O)[C@@H](Cc1ccccc1)NC(=O)[C@@H](NC(=O)[C@H](CC(C)C)NC(=O)[C@H](CC(=O)O)NC(=O)[C@@H](NC(=O)[C@H](CO)NC(C)=O)[C@@H](C)CC)[C@@H](C)O)[C@@H](C)CC)C(=O)N[C@@H](CCC(=O)O)C(=O)NCC(=O)N[C@@H](CCC(=O)O)C(=O)N[C@@H](CCCNC(=N)N)C(=O)N[C@@H](CCC(=O)O)C(=O)N[C@H]1CCC(=O)NCCCC[C@@H](C(=O)N[C@@H](CC(N)=O)C(=O)N[C@@H](CCCNC(=N)N)C(=O)N[C@@H](CC(N)=O)C(=O)N[C@@H](CC(C)C)C(=O)N[C@@H](CC(C)C)C(=O)N[C@@H](CC(=O)O)C(=O)N[C@@H](CCC(=O)O)C(=O)N[C@H](C(N)=O)C(C)C)NC(=O)[C@@H](CCC(N)=O)NC(=O)[C@H](C)NC1=O [Example 16 H, (cyclo 30-33)[Ac-Ser^7, D-Phe^12, Nle^14,18,24, Glu^30, D-Gln^32, Lys^33]-flounder urotensin(7-41)] (Ac-SIDLT[dF]H[Nle]LRN[Nle]IHRAK[Nle]EGEREEA[dQ]KNRNLLDEV-NH2; lactam 24-27)	stimulate the secretion of ACTH and β-END-LI	very significant lowering of blood pressure	–	–
(cyclo 29-32)[D-Leu^11, Nle^17, Glu^29, Lys^32 ]-sauvagine [Example 3 C]	stimulates the secretion of ACTH and β-END-LI	very significant lowering of blood pressure	–	in vitro potency to stimulate secretion of ACTH relative to the Standard [1]: about 5.73 (2.61-13.51) times
(cyclo 30-33)[Ac-Agl(Me,Ac)^7, D-Phe^12, Nle^21,38, Glu^30, Lys^33 ]-r/hCRF(7-41) [Example 19 G]	–	–	stimulates the secretion of ACTH and β-END-LI	in vitro potency to stimulate secretion of ACTH relative to the Standard [1]: about 3.4 times
(cyclo 30-33)[Ac-D/L-Agl(Me,For)^7, D-Phe^12, Nle^21,38, Glu^30, Lys^33 ]-r/hCRF(7-41) [Example 19 D]	–	–	stimulates the secretion of ACTH and β-END-LI	in vitro biopotency, comparison in words [1]: less potent than the Standard
(cyclo 30-33)[Ac-D/L-Agl^7, D-Phe^12, Nle^21,38, Glu^30, Lys^33 ]-r/hCRF(7-41) [Example 19]	–	–	stimulates the secretion of ACTH and β-END-LI	–
(cyclo 30-33)[Ac-D/L-MeAgl^7, D-Phe^12, Nle^21,38, Glu^30, Lys^33 ]-r/hCRF(7-41) [Example 19 B]	–	–	stimulate the secretion of ACTH and β-END-LI	in vitro biopotency, comparison in words [1]: less potent than the Standard
(cyclo 30-33)[Ac-MeAgl(For)^7, D-Phe^12, Nle^21,38, Glu^30, Lys^33 ]-r/hCRF(7-41) [Example 19 E]	–	–	stimulates the secretion of ACTH and β-END-LI	–
(cyclo 30-33)[Ac-Pro^4, D-Phe^12, CML^14, Nle^21,38, Glu^30, D-His^32, Lys^33 ]-r/hCRF(4-41) [Example 9 A]	–	–	stimulates the secretion of ACTH and β-END-LI	lowering of blood pressure on iv injection, in words [2]: lowers blood pressure
(cyclo 30-33)[Ac-Pro^4, D-Phe^12, CML^15, Nle^21,38, Glu^30, D-His^32, Lys^33 ]-r/hCRF(4-41) [Example 9]	–	–	stimulates the secretion of ACTH and β-END-LI	lowering of blood pressure on iv injection, in words [2]: lowers blood pressure
(cyclo 30-33)[Ac-Pro^4, D-Phe^12, Nle^21,38, Glu^30, D-His^32, Lys^33 ]-oCRF(4-41) [Example 3]	highly stimulates the secretion of ACTH and β-END-LI	very significant lowering of blood pressure	–	–
(cyclo 30-33)[Ac-Pro^4, D-Pro^5, D-Phe^12, Nle^21,38, CML^27, Glu^30, D-His^32, Lys^33 ]-r/hCRF(4-41) [Example 9 C D-Pro^5 analog]	–	–	stimulates the secretion of ACTH and β-END-LI	in vitro potency to stimulate secretion of ACTH relative to the Standard [1]: about 7 times
(cyclo 30-33)[Ac-Ser(OMe)^7, D-Phe^12, Nle^21,38, Glu^30, Lys^33 ]-r/hCRF(7-41) [Example 19 I]	–	–	stimulates the secretion of ACTH and β-END-LI	–
SEDPP[Nle]SIDLT[dF]H[Nle]LRN[Nle]IHRAK[Nle]EGEREEA[dQ]KNRNLLDEV-NH2 (lactam 30-33) [Example 3 H, (cyclo 30-33)[Nle^6,14,18,24, D-Phe^12, Glu^30, D-Gln^32, Lys^33]-flounder urotensin]	stimulates the secretion of ACTH and β-END-LI	very significant lowering of blood pressure	–	–
SEEPP[Nle]SIDLT[dF]H[Nle]LRN[Nle]IHRAK[Nle]EGEREEA[dL]KNRNLLDEV-NH2 (lactam 30-33) [Example 3 E, (cyclo 30-33)[Nle^6,14,18,24, D-Phe^12, Glu^30, D-Leu^32, Lys^33]-maggy urotensin]	stimulates the secretion of ACTH and β-END-LI	very significant lowering of blood pressure	–	–
SEEPP[Nle]SIDLT[dF]H[Nle]LRN[Nle]IHRAK[Nle]EGEREEA[dL]KNRNL[Nle]DEV-NH2 (lactam 30-33) [Example 3 G, (cyclo 30-33)[Nle^6,14,18,24,381 D-Phe^12 Glu^301 D-Leu^32, Lys^33]-sole urotensin]	stimulates the secretion of ACTH and β-END-LI	very significant lowering of blood pressure	–	–
